Measured values from US9924714B2, “Impregnatable matrix of plant, animal or synthetic origin or mixtures of same, containing a uniformly distributed antimicrobial compound, method for impregnating said matrix with a compound, and use thereof in the production of antimicrobial elements” (COMPAÑIA MINERA SAN GERONIMO, priority 2013, dated 2018).
Several values for one entry are separate records, joined by “and”; a condition that tells them apart may be missing. Equal entries are not always repeated.

Assays:
Type in all cases: cell-based
[1] = tested on: Citrobacter freundii ISP1949/99; experiment: Disc growth inhibition halo test (Example 2); conditions: commercial disc 30 μg Km
[2] = tested on: Escherichia coli ATCC25922; experiment: Inhibition halos of fabrics after washing (Example 7); conditions: commercial disc 30 μg Km; in mm
Method: (§1) This example established qualitatively the antibacterial activity of matrixes in thin fabric (Fabric 1) and thick fabric (Fabric 2) embedded with the product, following the procedure described herein, and after subjected to washing. In order to do this, there were taken pieces of 2×2 cm from both fabrics, cut and washed for 2 hours with stirring using commercial laundry detergent. Subsequently, the washed fabric pieces which have the new product are dried in an oven at 40° C. for 3 hours and placed on the background lawn. In order to generate the background lawn, it was prepared a bacterial culture of 16 hours, with the strain of interest, it was performed a 1/30 dilution of the culture with fresh medium and incubated under stirring at 37° C. until reaching the exponential growth phase (D0600 nm 0.4-0.5). It was taken an aliquot of 100 μL of the culture in exponential phase, and deposited in 4 mL of Mueller-Hinton soft agar at 0.8% (previously melted and stabilized at 50° C.). The mature was deposited on a Petri dish with 20 mL of Mueller-Hinton agar base. […]
(§2) Experiments were performed in triplicate and in three independent events. From the treated plates, it was measured the zone of inhibition generated by each control and fabrics embedded with the proposed compound, which is summarized in Table 7.

[3] = tested on: Staphylococcus aureus ATCC25923; experiment: as above; conditions: commercial disc 30 μg Km; in mm
Method: as §1, §2

[4] = tested on: Staphylococcus epidermidis ATCC25923; experiment: Disc growth inhibition halo test (Example 2); conditions: commercial disc 30 μg Km
[5] = tested on: Pseudomonas aeruginosa PAOI; experiment: Disc growth inhibition halo test (Example 2); conditions: commercial disc 30 μg Km
[6] = tested on: Staphylococcus aureus ATCC25923; experiment: Disc growth inhibition halo test (Example 2); conditions: commercial disc 30 μg Km
[7] = tested on: Enterobacter aerogenes ATCC13048; experiment: Disc growth inhibition halo test (Example 2); conditions: commercial disc 30 μg Km
[8] = tested on: Escherichia coli ATCC25922; experiment: Disc growth inhibition halo test (Example 2); conditions: commercial disc 30 μg Km
[9] = tested on: Enterobacter aerogenes ATCC13048; experiment: Thick cloth growth inhibition test (Example 6); conditions: commercial disc 30 μg Km; in mm
Method: (§3) This example determined qualitatively the antibacterial effect of the copper solution proposed, embedded in a matrix of thick fabric which was prepared following the procedure of the present invention. Pieces of cloth of about 2×2 cm were prepared and embedded with the product and then were deposited on a background lawn of 12 different bacteria strains.
(§4) In order to do this, it was prepared a bacterial culture of 16 hours, with the strain of interest, it was performed a 1/30 dilution of the culture with fresh medium and incubated under stirring at 37° C. until reaching the exponential growth phase (D0600 nm 0.4-0.5). It was taken an aliquot of 100 μL of the culture in exponential phase, and deposited in 4 mL of Mueller-Hinton soft agar at 0.8% (previously melted and stabilized at 50° C.). The mixture was deposited on a Petri dish with 20 mL of Mueller-Hinton agar base. Once the agar was gelled, each of the discs with different amounts of the test compound were deposited on the background lawn, and incubated at 37° C. during 48 hours.
(§5) Experiments were performed in triplicate in independently, using as negative control discs with the solvent DMSO alone and cloth without the product of study. As positive control were used commercial discs used with 30 μg of antibiotic Kanamycin (Km).

[10] = tested on: Staphylococcus epidermidis ATCC2S923; experiment: Thick cloth growth inhibition test (Example 6); conditions: commercial disc 30 μg Km; in mm
Method: as §3, §4, §5

[11] = tested on: Pseudomonas aeruginosa PAOI; experiment: Thick cloth growth inhibition test (Example 6); conditions: commercial disc 30 μg Km; in mm
Method: as §3, §4, §5

[12] = tested on: Enterococcus faecium ISP133/04; experiment: Thick cloth growth inhibition test (Example 6); conditions: commercial disc 30 μg Km; in mm
Method: as §3, §4, §5

[13] = tested on: Streptococcus pneumoniae ATCC14325; experiment: Thick cloth growth inhibition test (Example 6); conditions: commercial disc 30 μg Km; in mm
Method: as §3, §4, §5

[14] = tested on: Enterococcus faecalis ATCC29212; experiment: Thick cloth growth inhibition test (Example 6); conditions: commercial disc 30 μg Km; in mm
Method: as §3, §4, §5

[15] = tested on: Klebsiella pneumoniae ATCC4352; experiment: Thick cloth growth inhibition test (Example 6); conditions: commercial disc 30 μg Km; in mm
Method: as §3, §4, §5

[16] = tested on: Escherichia coli ATCC25922; experiment: Thick cloth growth inhibition test (Example 6); conditions: commercial disc 30 μg Km; in mm
Method: as §3, §4, §5

[17] = tested on: Streptococcus pyogenes ATCC2367; experiment: Thick cloth growth inhibition test (Example 6); conditions: commercial disc 30 μg Km; in mm
Method: as §3, §4, §5

[18] = tested on: Citrobacter freundii ISP1949/99; experiment: Thick cloth growth inhibition test (Example 6); conditions: commercial disc 30 μg Km
Method: as §3, §4, §5

[19] = tested on: Staphylococcus aureus ATCC25923; experiment: Thick cloth growth inhibition test (Example 6); conditions: commercial disc 30 μg Km; in mm
Method: as §3, §4, §5

[20] = tested on: Acinetobacter baumanii UPP4 56; experiment: Thick cloth growth inhibition test (Example 6); conditions: commercial disc 30 μg Km
Method: as §3, §4, §5

[21] = tested on: Enterococcus faecalis ATCC29212; experiment: Disc growth inhibition halo test (Example 2); conditions: commercial disc 30 μg Km
[22] = tested on: Streptococcus pyogenes ATCC2367; experiment: Disc growth inhibition halo test (Example 2); conditions: commercial disc 30 μg Km
[23] = tested on: Streptococcus pneumoniae ATCC14325; experiment: Disc growth inhibition halo test (Example 2); conditions: commercial disc 30 μg Km
[24] = tested on: Enterococcus faecium ISP133/04; experiment: Disc growth inhibition halo test (Example 2); conditions: commercial disc 30 μg Km

For `NC[C@H]1O[C@H](O[C@H]2[C@H](O)[C@@H](O[C@H]3O[C@H](CO)[C@@H](O)[C@H](N)[C@H]3O)[C@H](N)C[C@@H]2N)[C@H](O)[C@@H](O)[C@@H]1O` [Km, Kanamycin], the Growth inhibition zone [1] was 19 ± 0.3 mm and 12 ± 0.5 mm and 15 ± 0.5 mm and 19.0 ± 0.2 mm, the Growth inhibition zone [2] was 20.6 ± 0.6 and the Growth inhibition zone [3] was 18.0 ± 1.4. The Growth inhibition zone [4] was 16 + 0.5 mm and 14 + 0.7 mm and 18 ± 0.7 mm and 18.5 ± 3.5 mm, the Growth inhibition zone [5] was 7 ± 1.0 mm and 9 ± 0.7 mm and 7 + 0.7 mm and 7.0 ± 1.4 mm and the Growth inhibition zone [6] was 21 ± 2 mm and 20 ± 0.8 mm and 15 ± 0.5 mm and 19.0 mm. For the same compound, the Growth inhibition zone [7] was 14 + 0.5 mm and 15 ± 0.4 mm and 16 ± 0.4 mm and 19.0 ± 0.7 mm, the Growth inhibition zone [8] was 18 ± 1.8 mm and 15 ± 0.2 mm and 18 ± 0.7 mm and 20.0 ± 0.7 mm and the Growth inhibition zone [9] was 12.0 ± 0.5. For the same compound, the Growth inhibition zone [10] was 24.0 ± 1.0, the Growth inhibition zone [11] was 7.0 ± 0.5 and the Growth inhibition zone [12] was 11.0 ± 0.8. It also gave a Growth inhibition zone [13] of 10.0 ± 0.2, a Growth inhibition zone [14] of 14.0 ± 1.0 and a Growth inhibition zone [15] of 18.0 ± 1.0. The Growth inhibition zone [16] was 19.0 ± 0.5, the Growth inhibition zone [17] was 6.0 ± 1.0 and the Growth inhibition zone [18] was 17.0 ± 0.3. The Growth inhibition zone [19] was 18.0 ± 0.5, the Growth inhibition zone [20] was 5 mm and the Growth inhibition zone [21] was 10 mm and 15 + 0.6 mm and 15 ± 0.6 mm and 10.5 ± 0.2 mm. For the same compound, the Growth inhibition zone [22] was 5 mm and 5.0 mm, the Growth inhibition zone [23] was 15 ± 0.8 mm and 12.5 ± 1.2 mm and 11 ± 1 mm and 11.5 ± 0.8 mm and the Growth inhibition zone [24] was 12.5 ± 1.2 mm and 9 ± 0.7 mm and 11.0 mm.
